Reference: patent publication US9133158B2, “Bicyclic dihydroisoquinoline-1-one derivatives” (Hoffmann-La Roche Inc., priority 2011, dated 2015)

Key:
human CYP11B1 = biological target: T1, human CYP11B1 (Homo sapiens, UniProt P15538); assay: G-402 cellular enzyme assay, human CYP11B1 (cortisol release, HTRF); type: cell-based; settings: G-402 cells, 1 μM Deoxycortisol
T1 construct: expressed in transfected cells
T1 sequence (P15538 25-503): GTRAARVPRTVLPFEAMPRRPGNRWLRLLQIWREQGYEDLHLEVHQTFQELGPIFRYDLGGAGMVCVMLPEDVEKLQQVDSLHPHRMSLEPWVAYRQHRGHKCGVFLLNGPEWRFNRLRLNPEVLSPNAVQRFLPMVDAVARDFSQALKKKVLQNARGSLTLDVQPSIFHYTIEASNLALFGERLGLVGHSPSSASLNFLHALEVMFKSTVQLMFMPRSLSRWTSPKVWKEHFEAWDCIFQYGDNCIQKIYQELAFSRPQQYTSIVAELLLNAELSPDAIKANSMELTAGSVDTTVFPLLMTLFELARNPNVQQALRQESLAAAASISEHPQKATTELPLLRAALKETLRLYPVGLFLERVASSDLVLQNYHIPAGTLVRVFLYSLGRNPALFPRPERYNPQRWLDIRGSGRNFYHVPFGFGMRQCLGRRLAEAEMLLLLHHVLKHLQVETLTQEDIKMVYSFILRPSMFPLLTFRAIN
Procedure, shortened: (§1)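 G-402 cells stably expressing human CYP11B1 or CYP11B2, in DMEM/F12 with 2.5% charcoal-treated FCS, were incubated 16 h with test compound and substrate (1 μM 11-deoxycortisol for CYP11B1; 1 μM deoxycorticosterone for CYP11B2). Cortisol or aldosterone in supernatant was quantified by HTRF; EC50 from 4-parameter MMF fit.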

human CYP11B2 = biological target: T2, human CYP11B2 (Homo sapiens, UniProt P19099); assay: G-402 cellular enzyme assay, human CYP11B2 (aldosterone release, HTRF); type: cell-based; settings: G-402 cells, 1 μM Deoxycorticosterone
T2 construct: expressed in transfected cells
T2 sequence (P19099 25-503): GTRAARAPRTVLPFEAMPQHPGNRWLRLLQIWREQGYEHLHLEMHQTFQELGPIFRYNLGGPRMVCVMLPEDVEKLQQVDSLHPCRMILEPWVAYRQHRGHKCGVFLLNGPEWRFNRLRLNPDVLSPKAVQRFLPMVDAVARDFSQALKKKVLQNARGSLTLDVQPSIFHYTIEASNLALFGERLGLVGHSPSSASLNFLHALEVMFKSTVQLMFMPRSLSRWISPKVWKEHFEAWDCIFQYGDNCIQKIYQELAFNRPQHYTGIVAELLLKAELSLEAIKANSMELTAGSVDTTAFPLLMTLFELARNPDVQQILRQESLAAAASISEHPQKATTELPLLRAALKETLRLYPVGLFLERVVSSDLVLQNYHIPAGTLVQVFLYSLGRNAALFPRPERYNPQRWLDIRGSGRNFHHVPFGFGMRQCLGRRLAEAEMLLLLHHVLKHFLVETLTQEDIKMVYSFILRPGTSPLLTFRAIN
Procedure, shortened: as §1

SMILES | EC50 (human CYP11B1) | EC50 (human CYP11B2)
O=C1c2ccc(Cl)cc2CCN1c1cncc(Cn2ccnc2)c1 [Example 140, 6-Chloro-2-(5-imidazol-1-ylmethyl-pyridin-3-yl)-3,4-dihydro-2H-isoquinolin-1-one] | 0.0704 µM | 0.0118 µM
Cn1ncc2c(N3Cc4cc(Cl)ccc4C3=O)cncc21 [Example 116, 5-Chloro-2-(1-methyl-1H-pyrazolo[3,4-c]pyridin-4-yl)-2,3-dihydro-isoindol-1-one] | 5.13 µM | 0.132 µM
Cc1ccc(Cc2cncc(N3CCc4cc(Cl)ccc4C3=O)c2)cn1 [Example 206, 6-Chloro-2-[5-(6-methyl-pyridin-3-ylmethyl)-pyridin-3-yl]-3,4-dihydro-2H-isoquinolin-1-one] | 0.0068 µM | 0.0017 µM
Cn1nccc1CNc1cncc(N2CCc3cc(Cl)ccc3C2=O)c1 [Example 226, 6-Chloro-2-{5-[(2-methyl-2H-pyrazol-3-ylmethyl)-amino]-pyridin-3-yl}-3,4-dihydro-2H-isoquinolin-1-one] | 3.4 µM | 0.0534 µM
O=C1c2cc(F)c(Cl)cc2CCN1c1cccnc1 [Example 101, 6-Chloro-7-fluoro-2-pyridin-3-yl-3,4-dihydro-2H-isoquinolin-1-one] | 3.54 µM | 0.104 µM
C[C@H]1Cc2cc(Cl)ccc2C(=O)N1c1cccnc1 [Example 92, (S)-6-Chloro-3-methyl-2-pyridin-3-yl-3,4-dihydro-2H-isoquinolin-1-one] | 11.4 µM | 0.268 µM
CC(C)c1nccn1Cc1cncc(N2CCc3cc(Cl)ccc3C2=O)c1 [Example 141, 6-Chloro-2-[5-(2-isopropyl-imidazol-1-ylmethyl)-pyridin-3-yl]-3,4-dihydro-2H-isoquinolin-1-one] | 1.31 µM | 0.0405 µM
CC1(C)c2cc(Cl)ccc2C(=O)N1c1cncc(F)c1 [Example 129, 5-Chloro-2-(5-fluoro-pyridin-3-yl)-3,3-dimethyl-2,3-dihydro-isoindol-1-one] | 3.16 µM | 0.0636 µM
O=C1c2ccc(Cl)cc2CCN1c1cncc(-c2ccc(F)c(F)c2)c1 [Example 232, 6-Chloro-2-[5-(3,4-difluoro-phenyl)-pyridin-3-yl]-3,4-dihydro-2H-isoquinolin-1-one] | 1.35 µM | 0.0266 µM
O=C1c2ccc(Cl)c(Cl)c2CCN1c1cccnc1 [Example 95, 5,6-Dichloro-2-pyridin-3-yl-3,4-dihydro-2H-isoquinolin-1-one] | 10.3 µM | 0.327 µM
Nc1cncc(N2CCc3cc(Cl)ccc3C2=O)c1 [Example 17, 2-(5-Aminopyridin-3-yl)-6-chloro-3,4-dihydro-2H-isoquinolin-1-one] | 14 µM | 0.597 µM
O=C1CCCN1c1cncc(N2CCc3cc(Cl)ccc3C2=O)c1 [Example 26, 6-Chloro-2-[5-(2-oxo-pyrrolidin-1-yl)-pyridin-3-yl]-3,4-dihydro-2H-isoquinolin-1-one] | 8.15 µM | 0.321 µM
O=C1c2ccc(Cl)cc2CCN1c1cncc(Cc2c(F)cccc2Cl)c1 [Example 215, 6-Chloro-2-[5-(2-chloro-6-fluoro-benzyl)-pyridin-3-yl]-3,4-dihydro-2H-isoquinolin-1-one] | 0.137 µM | 0.0296 µM
O=C1c2ccc(Cl)cc2CCN1c1cncc(Cn2ccnc2CO)c1 [Example 163, 6-Chloro-2-[5-(2-hydroxymethyl-imidazol-1-ylmethyl)-pyridin-3-yl]-3,4-dihydro-2H-isoquinolin-1-one] | 3.36 µM | 0.215 µM
CCc1ccc(C(O)c2cncc(N3CCc4cc(Cl)ccc4C3=O)c2)cc1 (centres unmarked) [Example 33, 6-Chloro-2-{5-[(4-ethyl-phenyl)-hydroxy-methyl]-pyridin-3-yl}-3,4-dihydro-2H-isoquinolin-1-one] | 0.485 µM | 0.21 µM
O=C1c2ccc(Cl)cc2CCN1c1cncc(Cn2ccc3ccc(F)cc32)c1 [Example 184, 6-Chloro-2-[5-(6-fluoro-indol-1-ylmethyl)-pyridin-3-yl]-3,4-dihydro-2H-isoquinolin-1-one] | 0.271 µM | 0.0177 µM
Cn1nccc1Cc1cncc(N2CCc3cc(Cl)ccc3C2=O)c1 [Example 208, 6-Chloro-2-[5-(2-methyl-2H-pyrazol-3-ylmethyl)-pyridin-3-yl]-3,4-dihydro-2H-isoquinolin-1-one] | 0.0189 µM | 0.0021 µM
O=C1c2ccc(Cl)cc2CCN1c1cncc(C(O)c2ccccc2)c1 (centres unmarked) [Example 34, 6-Chloro-2-[5-(hydroxy-phenyl-methyl)-pyridin-3-yl]-3,4-dihydro-2H-isoquinolin-1-one] | 0.287 µM | 0.0316 µM
O=C1c2ccc(Cl)cc2CCN1c1cncc(Cn2ccc3cccc(F)c32)c1 [Example 185, 6-Chloro-2-[5-(7-fluoro-indol-1-ylmethyl)-pyridin-3-yl]-3,4-dihydro-2H-isoquinolin-1-one] | 0.673 µM | 0.066 µM

Continued, values first:

EC50 (human CYP11B1) | EC50 (human CYP11B2) | SMILES
3.61 µM | 0.204 µM | O=C1c2ccc(Cl)cc2CCN1c1cncc(-c2cccc(OC(F)(F)F)c2)c1 [Example 237, 6-Chloro-2-[5-(3-trifluoromethoxy-phenyl)-pyridin-3-yl]-3,4-dihydro-2H-isoquinolin-1-one]
5.25 µM | 0.207 µM | CCC(=O)NCc1cncc(N2C(=O)c3ccc(Cl)cc3C23CC3)c1 [Example 396, N-{[5-(6′-Chloro-3′-oxospiro [cyclopropane-1,1′-isoindol]-2′(3′H)-yl)pyridin-3-yl]methyl} propanamide]
35.2 µM | 0.546 µM | CCC1c2ccc(Cl)cc2C(=O)N1c1cncc(CNS(C)(=O)=O)c1 (single isomer, unassigned) [Example 405, N-[5-((S or R)-5-Chloro-1-ethyl-3-oxo-1,3-dihydro-isoindol-2-yl)-pyridin-3-ylmethyl]-methane-sulfonamide]
0.475 µM | 0.0429 µM | CCC1c2cc(Cl)ccc2C(=O)N1c1cncc(OC(F)F)c1 (centres unmarked) [Example 282, 5-Chloro-2-(5-difluoromethoxy-pyridin-3-yl)-3-ethyl-2,3-dihydro-isoindol-1-one]
0.263 µM | 0.185 µM | CCS(=O)(=O)N1CCC(Oc2cncc(N3C(=O)c4ccc(Cl)cc4C3(C)C)c2)C1 (centres unmarked) [Example 446, 5-Chloro-2-[5-(1-ethanesulfonyl-pyrrolidin-3-yloxy) -pyridin-3-yl]-3,3-dimethyl-2,3-dihydro-isoindol-1-one]
0.37 µM | 0.0258 µM | CC1(C)c2cc(Cl)ccc2C(=O)N1c1cncc(Cn2cccn2)c1 [Example 379, 5-Chloro-3,3-dimethyl-2-(5-pyrazol-1-ylmethyl-pyridin-3-yl)-2,3-dihydro-isoindol-1-one]
4.93 µM | 0.491 µM | O=C(Cc1cncc(N2CCc3cc(Cl)ccc3C2=O)c1)N1CCOCC1 [Example 263, 6-Chloro-2-[5-(2-morpholin-4-yl-2-oxo-ethyl)-pyridin-3-yl]-3,4-dihydro-2H-isoquinolin-1-one]
14.3 µM | 0.216 µM | COc1ccc2c(n1)C(C)(C)N(c1cccnc1)C2=O [Example 300, 2-Methoxy-7,7-dimethyl-6-pyridin-3-yl-6,7-dihydro-pyrrolo[3,4-b]pyridin-5-one]
4.01 µM | 0.0482 µM | CCC(=O)N[C@@H]1CCCc2c1cncc2N1C(=O)c2cc(Cl)ccc2[C@H]1CC (single isomer, unassigned) [Example 312, N-[(R or S)-4-((R or S)-5-Chloro-1-ethyl-3-oxo-1,3-dihydro-isoindol-2-yl)-5,6,7,8-tetrahydro-isoquinolin-8-yl]-propionamide]
0.356 µM | 0.0076 µM | CC1(C)c2cc(Cl)ccc2C(=O)N1c1cnccc1Cl [Example 285, 5-Chloro-2-(4-chloro-pyridin-3-yl)-3,3-dimethyl-2,3-dihydro-isoindol-1-one]
0.86 µM | 0.0054 µM | O=C1c2ccc(Cl)cc2C2(CC2)N1c1cnccc1Cl [Example 305, 6′-Chloro-2′-(4-chloropyridin-3-yl)spiro[cyclopropane-1,1′-isoindol]-3′(2′H)-one]
35.1 µM | 4.35 µM | CS(=O)(=O)NC1CCc2c1cncc2N1CCc2cc(Cl)ccc2C1=O (single isomer, unassigned) [Example 331, N-[(R or S)-4-(6-Chloro-1-oxo-3,4-dihydro-1H-isoquinolin-2-yl)-6,7-dihydro-5H-[2]pyrindin-7-yl]-methanesulfonamide]
